Experimental data from patent US8188059B2, “Compounds and methods for modulating expression of GCGR” (Isis Pharmaceuticals, Inc., priority 2006, dated 2012).
Strand notation (5' to 3'): a small letter for the sugar, then the base; units joined by * are phosphorothioate-linked, units joined directly phosphodiester-linked; [ ] holds rarer units or linkages, { } end groups; capitals alone tell only the bases. e = 2'-O-(2-methoxyethyl) (MOE); [5mC] = 5-methylcytosine; d = 2'-deoxy (DNA)

Legend:
Format in all cases: in vivo, mouse
GCGR mRNA = GCGR mRNA levels in liver of C57/BL6 mice, single i.p. dose (Example 4, Tables 35-41); settings: 48 h
In short: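 Male C57/BL6 mice, eight weeks old, four per group, received one i.p. dose of 2′-MOE phosphorothioate GCGR antisense oligonucleotide, some C16-conjugated, at 6.25, 12.5, 25 or 50 mg. Liver GCGR mRNA measured by real-time PCR 48 h post-dose; expressed as percent of saline control.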

[1] = ALT & AST levels, C57/BL6 mice (Example 4, Table 32); settings: for ALT Pre-Bleed / AST Pre-Bleed: pre-treatment bleed; for ALT Post-Bleed / AST Post-Bleed: 48 hours following injection
Protocol: (§1) Eight-week old male C57/BL6 mice (Jackson Laboratory, Bar Harbor, Me.) were administered a single dose of GCGR oligonucleotide by intraperitoneal injection at a concentration of […]. Each dose group consisted of four animals. Shown in Table 31 are the sequences, motifs and conjugates of the GCGR antisense compounds used in this study. Bolded residues indicate 2′-O-methoxyethyl (2′-MOE) moieties. All compounds comprise phosphorothioate internucleoside linkages throughout and each cytosine is replaced with 5-methylcytosine. ISIS 386626, ISIS 386627 and ISIS 386628 further comprise a C16 conjugate group attached to the 2′-O position of the sugar via a diamide linkage (2′-OCH2C(═O)N(H)(CH2)4N(H)C(═O)—(CH2)15CH3). GCGR antisense compounds target published GCGR sequences, including Genbank® Accession No. BC031885.1 (SEQ ID NO: 7).
(§2) Mice were sacrificed 48 hours following injection to determine serum transaminase levels (Table 32); liver, white adipose tissue (WAT), spleen and kidney weight (Table 33); cholesterol, triglyceride and glucose levels (Table 34); GCGR mRNA levels (Tables 35-41); and full-length and total oligonucleotide concentration in liver and kidney (Table 42). Endpoints were assessed using methods described herein and well known to those of ordinary skill in the art. Data is included from a pre-treatment bleed (Pre-Bleed) and post-treatment bleed (Post-Bleed).

[2] = Organ weights: liver, white adipose tissue, spleen, kidney (Example 4, Table 33); settings: 48 h, C57/BL6 mice
Protocol: as §1, §2

[3] = Triglyceride, cholesterol and glucose levels, pre-bleed and post-bleed (Example 4, Table 34); set-up: TRIG Pre-Bleed / TRIG Post-Bleed / CHOL Pre-Bleed / CHOL Post-Bleed / Glucose Pre-Bleed / Glucose Post-Bleed: unit not given here; settings: C57/BL6 mice; for CHOL Pre-Bleed / Glucose Pre-Bleed / TRIG Pre-Bleed: pre-treatment bleed; for CHOL Post-Bleed / Glucose Post-Bleed / TRIG Post-Bleed: post-treatment bleed, 48 h
[4] = Total and full-length antisense compound concentrations in liver and kidney (Example 4, Table 42); settings: C57/BL6 mice; single i.p. dose; 48 h; dose not given
Protocol: as §1, §2
Treatment with the 2-10-2 MOE gapmers led to a significant dose-dependent decrease in GCGR mRNA expression. […] To determine whether the observed increase in efficiency with the short antisense compounds is due to an increase in antisense compound accumulation, full-length and total antisense compound concentration in the liver and kidney were determined.

Substance: 148364 (antisense eT*eG*e[5mC]*eA*e[5mC]*dT*dT*dT*dG*dT*dG*dG*dT*dA*d[5mC]*e[5mC]*eA*eA*eG*eG) [compound 148364]
- GCGR mRNA levels in liver (GCGR mRNA; 6.25 mg/kg single i.p., Table 35 comparison ISIS 148364 & ISIS 386626): 62% of saline control
- GCGR mRNA levels in liver (GCGR mRNA; 6.25 mg/kg single i.p., Table 36 comparison ISIS 148364 & ISIS 386627): 86% of saline control
- GCGR mRNA levels in liver (GCGR mRNA; 6.25 mg/kg single i.p., Table 37 comparison ISIS 148364 & ISIS 386593): 86% of saline control
- GCGR mRNA levels in liver (GCGR mRNA; 6.25 mg/kg single i.p., Table 38 comparison ISIS 148364 & ISIS 386628): 101% of saline control
- GCGR mRNA levels in liver (GCGR mRNA; 6.25 mg/kg single i.p., Table 39 comparison ISIS 148364 & ISIS 386594): 96% of saline control
- GCGR mRNA levels in liver (GCGR mRNA; 12.5 mg/kg single i.p., Table 35 comparison ISIS 148364 & ISIS 386626): 87% of saline control
- GCGR mRNA levels in liver (GCGR mRNA; 12.5 mg/kg single i.p., Table 36 comparison ISIS 148364 & ISIS 386627): 105% of saline control
- GCGR mRNA levels in liver (GCGR mRNA; 12.5 mg/kg single i.p., Table 37 comparison ISIS 148364 & ISIS 386593): 105% of saline control
- GCGR mRNA levels in liver (GCGR mRNA; 12.5 mg/kg single i.p., Table 38 comparison ISIS 148364 & ISIS 386628): 98% of saline control
- GCGR mRNA levels in liver (GCGR mRNA; 12.5 mg/kg single i.p., Table 39 comparison ISIS 148364 & ISIS 386594): 102% of saline control
- GCGR mRNA levels in liver (GCGR mRNA; 25 mg/kg single i.p., Table 35 comparison ISIS 148364 & ISIS 386626): 79% of saline control
- GCGR mRNA levels in liver (GCGR mRNA; 25 mg/kg single i.p., Table 36 comparison ISIS 148364 & ISIS 386627): 87% of saline control
- GCGR mRNA levels in liver (GCGR mRNA; 25 mg/kg single i.p., Table 37 comparison ISIS 148364 & ISIS 386593): 74% of saline control
- GCGR mRNA levels in liver (GCGR mRNA; 25 mg/kg single i.p., Table 38 comparison ISIS 148364 & ISIS 386628): 77% of saline control
- GCGR mRNA levels in liver (GCGR mRNA; 25 mg/kg single i.p., Table 39 comparison ISIS 148364 & ISIS 386594): 98% of saline control
- GCGR mRNA levels in liver (GCGR mRNA; 50 mg/kg single i.p., Table 35 comparison ISIS 148364 & ISIS 386626): 36% of saline control
- GCGR mRNA levels in liver (GCGR mRNA; 50 mg/kg single i.p., Table 36 comparison ISIS 148364 & ISIS 386627): 63% of saline control
- GCGR mRNA levels in liver (GCGR mRNA; 50 mg/kg single i.p., Table 37 comparison ISIS 148364 & ISIS 386593): 56% of saline control
- GCGR mRNA levels in liver (GCGR mRNA; 50 mg/kg single i.p., Table 38 comparison ISIS 148364 & ISIS 386628): 42% of saline control
- GCGR mRNA levels in liver (GCGR mRNA; 50 mg/kg single i.p., Table 39 comparison ISIS 148364 & ISIS 386594): 59% of saline control
- ALT Pre-Bleed ([1]; 6.25 mg/kg dose group): 28 IU/L
- AST Pre-Bleed ([1]; 6.25 mg/kg dose group): 47 IU/L
- ALT Pre-Bleed ([1]; 12.5 mg/kg dose group): 23 IU/L
- AST Pre-Bleed ([1]; 12.5 mg/kg dose group): 44 IU/L
- ALT Pre-Bleed ([1]; 25 mg/kg dose group): 26 IU/L
- AST Pre-Bleed ([1]; 25 mg/kg dose group): 42 IU/L
- ALT Pre-Bleed ([1]; 50 mg/kg dose group): 24 IU/L
- AST Pre-Bleed ([1]; 50 mg/kg dose group): 40 IU/L
- ALT Post-Bleed ([1]; single i.p. dose 6.25 mg/kg): 34 IU/L
- AST Post-Bleed ([1]; single i.p. dose 6.25 mg/kg): 76 IU/L
- ALT Post-Bleed ([1]; single i.p. dose 12.5 mg/kg): 32 IU/L
- AST Post-Bleed ([1]; single i.p. dose 12.5 mg/kg): 69 IU/L
- ALT Post-Bleed ([1]; single i.p. dose 25 mg/kg): 35 IU/L
- AST Post-Bleed ([1]; single i.p. dose 25 mg/kg): 87 IU/L
- ALT Post-Bleed ([1]; single i.p. dose 50 mg/kg): 40 IU/L
- AST Post-Bleed ([1]; single i.p. dose 50 mg/kg): 115 IU/L
- Organ weight: Kidney ([2]; 6.25 mg/kg single i.p.): 104 % saline control
- Organ weight: Liver ([2]; 6.25 mg/kg single i.p.): 101 % saline control
- Organ weight: Spleen ([2]; 6.25 mg/kg single i.p.): 113 % saline control
- Organ weight: WAT ([2]; 6.25 mg/kg single i.p.): 89 % saline control
- Organ weight: Kidney ([2]; 12.5 mg/kg single i.p.): 108 % saline control
- Organ weight: Liver ([2]; 12.5 mg/kg single i.p.): 100 % saline control
- Organ weight: Spleen ([2]; 12.5 mg/kg single i.p.): 96 % saline control
- Organ weight: WAT ([2]; 12.5 mg/kg single i.p.): 84 % saline control
- Organ weight: Kidney ([2]; 25 mg/kg single i.p.): 112 % saline control
- Organ weight: Liver ([2]; 25 mg/kg single i.p.): 103 % saline control
- Organ weight: Spleen ([2]; 25 mg/kg single i.p.): 115 % saline control
- Organ weight: WAT ([2]; 25 mg/kg single i.p.): 75 % saline control
- Organ weight: Kidney ([2]; 50 mg/kg single i.p.): 108 % saline control
- Organ weight: Liver ([2]; 50 mg/kg single i.p.): 103 % saline control
- Organ weight: Spleen ([2]; 50 mg/kg single i.p.): 123 % saline control
- Organ weight: WAT ([2]; 50 mg/kg single i.p.): 80 % saline control
- CHOL Pre-Bleed ([3]; 6.25 mg/kg group): 86
- Glucose Pre-Bleed ([3]; 6.25 mg/kg group): 226
- TRIG Pre-Bleed ([3]; 6.25 mg/kg group): 86
- CHOL Post-Bleed ([3]; 6.25 mg/kg single i.p.): 89
- Glucose Post-Bleed ([3]; 6.25 mg/kg single i.p.): 215
- TRIG Post-Bleed ([3]; 6.25 mg/kg single i.p.): 162
- CHOL Pre-Bleed ([3]; 12.5 mg/kg group): 85
- Glucose Pre-Bleed ([3]; 12.5 mg/kg group): 198
- TRIG Pre-Bleed ([3]; 12.5 mg/kg group): 106
- CHOL Post-Bleed ([3]; 12.5 mg/kg single i.p.): 89
- Glucose Post-Bleed ([3]; 12.5 mg/kg single i.p.): 256
- TRIG Post-Bleed ([3]; 12.5 mg/kg single i.p.): 179
- CHOL Pre-Bleed ([3]; 25 mg/kg group): 83
- Glucose Pre-Bleed ([3]; 25 mg/kg group): 219
- TRIG Pre-Bleed ([3]; 25 mg/kg group): 115
- CHOL Post-Bleed ([3]; 25 mg/kg single i.p.): 96
- Glucose Post-Bleed ([3]; 25 mg/kg single i.p.): 239
- TRIG Post-Bleed ([3]; 25 mg/kg single i.p.): 200
- CHOL Pre-Bleed ([3]; 50 mg/kg group): 81
- Glucose Pre-Bleed ([3]; 50 mg/kg group): 207
- TRIG Pre-Bleed ([3]; 50 mg/kg group): 110
- CHOL Post-Bleed ([3]; 50 mg/kg single i.p.): 94
- Glucose Post-Bleed ([3]; 50 mg/kg single i.p.): 228
- TRIG Post-Bleed ([3]; 50 mg/kg single i.p.): 177
- Full-length antisense compound concentration, Kidney [4]: 58 µg/g
- Full-length antisense compound concentration, Liver [4]: 46 µg/g
- Total antisense compound concentration, Kidney [4]: 90 µg/g
- Total antisense compound concentration, Liver [4]: 54 µg/g
